The source made the active and inactive calls.
Assays:
Type in all cases: functional, cell-based
A549 [1] = assay: Antiproliferative activity against resveratrol-induced human lung A549 cells at 100 nM measured after 5 days by CCK-8 assay; conditions: time 5.0 day
ASTC-a-1 [2] = assay: Antiproliferative activity against resveratrol-induced human lung ASTC-a-1 cells at 100 nM measured after 5 days by CCK-8 assay; conditions: time 5.0 day
A549 [3] = assay: Induction of apoptosis in resveratrol-induced human lung A549 cells at 100 nM assessed as increase in cleaved caspase-3 expression measured by immunoblotting method
ASTC-a-1 [4] = assay: Induction of apoptosis in resveratrol-induced human lung ASTC-a-1 cells at 100 nM assessed as increase in cleaved caspase-3 expression measured by immunoblotting method
A549 [5] = assay: Induction of apoptosis in resveratrol-induced human lung A549 cells assessed as decrease in pAkt level at Thr308 measured by immunoblotting method
A549 [6] = assay: Induction of apoptosis in resveratrol-induced human lung A549 cells assessed as decrease in pAkt level at Ser473 measured by immunoblotting method
A549 [7] = assay: Induction of apoptosis in resveratrol-induced human lung A549 cells assessed as decrease in pGSK3beta level at Ser9 measured by immunoblotting method
A549 [8] = assay: Induction of apoptosis in resveratrol-induced human lung A549 cells assessed as decrease in Cyclin D1 level measured by immunoblotting method
A549 [9] = assay: Induction of apoptosis in resveratrol-induced human lung A549 cells assessed as decrease in Cyclin E1 level measured by immunoblotting method

Measured: Activity

O=C(NC[C@H](O)CN1CCc2ccccc2C1)c1ccnc(NC2CCC2)c1
active: all assays above

Source: ChEMBL document CHEMBL5674888, “PRMT5 Promotes Human Lung Cancer Cell Apoptosis via Akt/Gsk3β Signaling Induced by Resveratrol” (Cell Transplant, 2019)
